Experimental data reported in ChEMBL document CHEMBL2016493, “Design, synthesis, synergistic antimicrobial activity and cytotoxicity of 4-aryl substituted 3,4-dihydropyrimidinones of curcumin” (Bioorg Med Chem Lett, 2012).
Active and inactive are the calls of the source. No cut-off for these calls is given here.

Key:
Escherichia coli [1] = test: Antibacterial activity against Escherichia coli ATCC 35218 at 160 uM/ml after 24 hrs by kirby-bauer method; type: functional; conditions: ATCC 35218, 24 h, read-out: IZ
Escherichia coli [2] = test: Antibacterial activity against Escherichia coli ATCC 35218 at 80 uM/ml after 24 hrs by kirby-bauer method; type: functional; conditions: ATCC 35218, 24 h, read-out: IZ
Escherichia coli [3] = test: Antibacterial activity against Escherichia coli ATCC 35218 at 40 uM/ml after 24 hrs by kirby-bauer method; type: functional; conditions: ATCC 35218, 24 h, read-out: IZ
Escherichia coli [4] = test: Antibacterial activity against Escherichia coli ATCC 35218 at 20 uM/ml after 24 hrs by kirby-bauer method; type: functional; conditions: for zone of inhibition at 20 µM: ATCC 35218, 24 h, read-out: IZ
[5] = test system: Burkholderia pseudomallei; test: Antibacterial activity against Burkholderia pseudomallei NTCC 10274 at 160 uM/ml after 24 hrs by kirby-bauer method; type: functional; conditions: for zone of inhibition at 160 µM: NTCC 10274, 24 h, read-out: IZ
[6] = test system: Burkholderia pseudomallei; test: Antibacterial activity against Burkholderia pseudomallei NTCC 10274 at 80 uM/ml after 24 hrs by kirby-bauer method; type: functional; conditions: NTCC 10274, 24 h, read-out: IZ
[7] = test system: Burkholderia pseudomallei; test: Antibacterial activity against Burkholderia pseudomallei NTCC 10274 at 40 uM/ml after 24 hrs by kirby-bauer method; type: functional; conditions: NTCC 10274, 24 h, read-out: IZ
[8] = test system: Burkholderia pseudomallei; test: Antibacterial activity against Burkholderia pseudomallei NTCC 10274 at 20 uM/ml after 24 hrs by kirby-bauer method; type: functional; conditions: NTCC 10274, 24 h, read-out: IZ
Pseudomonas aeruginosa [9] = test: Antibacterial activity against Pseudomonas aeruginosa ATCC 15499 at 160 uM/ml after 24 hrs by kirby-bauer method; type: functional; conditions: ATCC 15499, 24 h, read-out: IZ
Pseudomonas aeruginosa [10] = test: Antibacterial activity against Pseudomonas aeruginosa ATCC 15499 at 80 uM/ml after 24 hrs by kirby-bauer method; type: functional; conditions: for zone of inhibition at 80 µM: ATCC 15499, 24 h, read-out: IZ
Pseudomonas aeruginosa [11] = test: Antibacterial activity against Pseudomonas aeruginosa ATCC 15499 at 40 uM/ml after 24 hrs by kirby-bauer method; type: functional; conditions: for zone of inhibition at 40 µM: ATCC 15499, 24 h, read-out: IZ
Pseudomonas aeruginosa [12] = test: Antibacterial activity against Pseudomonas aeruginosa ATCC 15499 at 20 uM/ml after 24 hrs by kirby-bauer method; type: functional; conditions: for zone of inhibition at 20 µM: ATCC 15499, 24 h, read-out: IZ
Salmonella typhimurium [13] = test: Antibacterial activity against Salmonella typhimurium ATCC 23564 at 160 uM/ml after 24 hrs by kirby-bauer method; type: functional, Salmonella enterica subsp. enterica serovar Typhimurium; conditions: for zone of inhibition at 160 µM: Salmonella enterica, ATCC 23564, 24 h, read-out: IZ
Salmonella typhimurium [14] = test: Antibacterial activity against Salmonella typhimurium ATCC 23564 at 80 uM/ml after 24 hrs by kirby-bauer method; type: functional, Salmonella enterica subsp. enterica serovar Typhimurium; conditions: Salmonella enterica, ATCC 23564, 24 h; read-out: IZ
Salmonella typhimurium [15] = test: Antibacterial activity against Salmonella typhimurium ATCC 23564 at 40 uM/ml after 24 hrs by kirby-bauer method; type: functional, Salmonella enterica subsp. enterica serovar Typhimurium
Salmonella typhimurium [16] = test: Antibacterial activity against Salmonella typhimurium ATCC 23564 at 20 uM/ml after 24 hrs by kirby-bauer method; type: functional, Salmonella enterica subsp. enterica serovar Typhimurium
Staphylococcus aureus [17] = test: Antibacterial activity against Staphylococcus aureus ATCC 11632 at 160 uM/ml after 24 hrs by kirby-bauer method; type: functional; conditions: for zone of inhibition at 160 µM: ATCC 11632, 24 h, read-out: IZ
Staphylococcus aureus [18] = test: Antibacterial activity against Staphylococcus aureus ATCC 11632 at 80 uM/ml after 24 hrs by kirby-bauer method; type: functional; conditions: ATCC 11632, 24 h, read-out: IZ
Staphylococcus aureus [19] = test: Antibacterial activity against Staphylococcus aureus ATCC 11632 at 40 uM/ml after 24 hrs by kirby-bauer method; type: functional
Staphylococcus aureus [20] = test: Antibacterial activity against Staphylococcus aureus ATCC 11632 at 20 uM/ml after 24 hrs by kirby-bauer method; type: functional
Aspergillus niger [21] = test: Antifungal activity against Aspergillus niger MTCC 1108 at 160 uM/ml after 48 hrs by paper disc diffusion method; type: functional; conditions: MTCC 1108, 48 h, read-out: IZ
Aspergillus niger [22] = test: Antifungal activity against Aspergillus niger MTCC 1108 at 80 uM/ml after 48 hrs by paper disc diffusion method; type: functional
Aspergillus niger [23] = test: Antifungal activity against Aspergillus niger MTCC 1108 at 40 uM/ml after 48 hrs by paper disc diffusion method; type: functional
Aspergillus niger [24] = test: Antifungal activity against Aspergillus niger MTCC 1108 at 20 uM/ml after 48 hrs by paper disc diffusion method; type: functional
Aspergillus flavus [25] = test: Antifungal activity against Aspergillus flavus MTCC 1021 at 160 uM/ml after 48 hrs by paper disc diffusion method; type: functional
Curvularia lunata [26] = test: Antifungal activity against Curvularia lunata MTCC 581 at 160 uM/ml after 48 hrs by paper disc diffusion method; type: functional; conditions: MTCC 581, 48 h, read-out: IZ
Curvularia lunata [27] = test: Antifungal activity against Curvularia lunata MTCC 581 at 80 uM/ml after 48 hrs by paper disc diffusion method; type: functional; conditions: MTCC 581, 48 h, read-out: IZ
Curvularia lunata [28] = test: Antifungal activity against Curvularia lunata MTCC 581 at 40 uM/ml after 48 hrs by paper disc diffusion method; type: functional; conditions: MTCC 581, 48 h, read-out: IZ
Curvularia lunata [29] = test: Antifungal activity against Curvularia lunata MTCC 581 at 20 uM/ml after 48 hrs by paper disc diffusion method; type: functional; conditions: MTCC 581, 48 h, read-out: IZ
Trichoderma viride [30] = test: Antifungal activity against Trichoderma viride MTCC 1107 at 160 uM/ml after 48 hrs by paper disc diffusion method; type: functional; conditions: MTCC 1107, 48 h, read-out: IZ
Trichoderma viride [31] = test: Antifungal activity against Trichoderma viride MTCC 1107 at 80 uM/ml after 48 hrs by paper disc diffusion method; type: functional; conditions: MTCC 1107, 48 h, read-out: IZ
Trichoderma viride [32] = test: Antifungal activity against Trichoderma viride MTCC 1107 at 40 uM/ml after 48 hrs by paper disc diffusion method; type: functional; conditions: MTCC 1107, 48 h, read-out: IZ
Trichoderma viride [33] = test: Antifungal activity against Trichoderma viride MTCC 1107 at 20 uM/ml after 48 hrs by paper disc diffusion method; type: functional; conditions: MTCC 1107, 48 h, read-out: IZ
QG-56 = test: Cytotoxicity against human QG56 cells after 48 hrs by MTT assay; type: functional, cell-based
Aspergillus flavus [34] = test: Antifungal activity against Aspergillus flavus MTCC 1021 at 80 uM/ml after 48 hrs by paper disc diffusion method; type: functional
Aspergillus flavus [35] = test: Antifungal activity against Aspergillus flavus MTCC 1021 at 40 uM/ml after 48 hrs by paper disc diffusion method; type: functional
Aspergillus flavus [36] = test: Antifungal activity against Aspergillus flavus MTCC 1021 at 20 uM/ml after 48 hrs by paper disc diffusion method; type: functional
[37] = Salmonella enterica, ATCC 23564, 24 h, read-out: IZ
[38] = Salmonella enterica subsp. enterica serovar Typhimurium

Row | SMILES | zone of inhibition at 160 µM (Escherichia coli [1]) | zone of inhibition at 80 µM (Escherichia coli [2]) | zone of inhibition at 40 µM (Escherichia coli [3]) | zone of inhibition at 20 µM (Escherichia coli [4]) | zone of inhibition at 160 µM [5] | zone of inhibition at 80 µM [6] | zone of inhibition at 40 µM [7] | zone of inhibition at 20 µM [8] | zone of inhibition at 160 µM (Pseudomonas aeruginosa [9]) | zone of inhibition at 80 µM (Pseudomonas aeruginosa [10]) | zone of inhibition at 40 µM (Pseudomonas aeruginosa [11]) | zone of inhibition at 20 µM (Pseudomonas aeruginosa [12]) | zone of inhibition at 160 µM (Salmonella typhimurium [13]) | zone of inhibition at 80 µM (Salmonella typhimurium [14]) | zone of inhibition at 160 µM (Staphylococcus aureus [17]) | zone of inhibition at 80 µM (Staphylococcus aureus [18]) | zone of inhibition at 160 µM (Aspergillus niger [21]) | inhibition zone (IZ) (Aspergillus niger [23]) | inhibition zone (IZ) (Aspergillus niger [24]) | zone of inhibition at 160 µM (Curvularia lunata [26]) | further results
1 | CC1(C)S[C@@H]2[C@H](NC(=O)[C@H](N)c3ccccc3)C(=O)N2[C@H]1C(=O)O [AMPICILLIN] | 34 mm | 32 mm | 30 mm | 30 mm | 46 mm | 41 mm | 39 mm | 38 mm | 39 mm | 36 mm | 34 mm | 31 mm | 51 mm | 45 mm | 37 mm | 30 mm | – | – | – | – | zone of inhibition at 40 µM (Salmonella typhimurium [15]; [37]): 44 mm; zone of inhibition at 20 µM (Salmonella typhimurium [16]; [37]): 37 mm; zone of inhibition at 40 µM (Staphylococcus aureus [19]; ATCC 11632, 24 h, read-out: IZ): 29 mm; zone of inhibition at 20 µM (Staphylococcus aureus [20]; ATCC 11632, 24 h, read-out: IZ): 28 mm
2 | COc1cc(/C=C/C(=O)C2=C(/C=C/c3ccc(O)c(OC)c3)NC(=O)NC2c2ccc(Cl)cc2)ccc1O (stereo unspecified) | 19 mm | 16 mm | 11 mm | 9 mm | – | – | – | – | 9 mm | – | – | – | 11 mm | 9 mm | 12 mm | 10 mm | 12 mm | inactive | inactive | 22 mm | inhibition zone (IZ) [5]: inactive; inhibition zone (IZ) (Pseudomonas aeruginosa [10]): inactive; inhibition zone (IZ) (Pseudomonas aeruginosa [11]): inactive; inhibition zone (IZ) (Pseudomonas aeruginosa [12]): inactive; inhibition zone (IZ) (Salmonella typhimurium [15]; [38]): inactive; inhibition zone (IZ) (Salmonella typhimurium [16]; [38]): inactive; inhibition zone (IZ) (Staphylococcus aureus [19]): inactive; inhibition zone (IZ) (Staphylococcus aureus [20]): inactive; inhibition zone (IZ) (Aspergillus niger [22]): inactive; inhibition zone (IZ) (Aspergillus flavus [25]): inactive; zone of inhibition at 80 µM (Curvularia lunata [27]): 18 mm; zone of inhibition at 40 µM (Curvularia lunata [28]): 12 mm; zone of inhibition at 20 µM (Curvularia lunata [29]): 9 mm; zone of inhibition at 160 µM (Trichoderma viride [30]): 18 mm; zone of inhibition at 80 µM (Trichoderma viride [31]): 17 mm; zone of inhibition (Trichoderma viride [32]): 17 mm; zone of inhibition at 20 µM (Trichoderma viride [33]): 15 mm; IC50 (QG-56): 100 uM/ml; IC50 (HepG2): 100 uM/ml; IC50 (HCT-116): 100 uM/ml
3 | COc1ccc(C2NC(=S)NC(/C=C/c3ccc(O)c(OC)c3)=C2C(=O)/C=C/c2ccc(O)c(OC)c2)cc1 (stereo unspecified) | 18 mm | 14 mm | 9 mm | – | 24 mm | 21 mm | 19 mm | 16 mm | 23 mm | 20 mm | 19 mm | 18 mm | – | – | – | – | 11 mm | inactive | inactive | 24 mm | inhibition zone (IZ) (Escherichia coli [4]): inactive; inhibition zone (IZ) (Salmonella typhimurium [13]; [38]): inactive; inhibition zone (IZ) (Staphylococcus aureus [17]): inactive; zone of inhibition at 80 µM (Aspergillus niger [22]; MTCC 1108, 48 h, read-out: IZ): 9 mm; zone of inhibition at 160 µM (Aspergillus flavus [25]; MTCC 1021, 48 h, read-out: IZ): 9 mm; inhibition zone (IZ) (Aspergillus flavus [34]): inactive; inhibition zone (IZ) (Aspergillus flavus [35]): inactive; inhibition zone (IZ) (Aspergillus flavus [36]): inactive; zone of inhibition at 80 µM (Curvularia lunata [27]): 21 mm; zone of inhibition at 40 µM (Curvularia lunata [28]): 18 mm; zone of inhibition at 20 µM (Curvularia lunata [29]): 16 mm; zone of inhibition at 160 µM (Trichoderma viride [30]): 23 mm; zone of inhibition at 80 µM (Trichoderma viride [31]): 19 mm; zone of inhibition (Trichoderma viride [32]): 18 mm; zone of inhibition at 20 µM (Trichoderma viride [33]): 17 mm; IC50 (QG-56): 50 uM/ml; IC50 (HepG2): 100 uM/ml; IC50 (HCT-116): 50 uM/ml
